Data reported in patent US9012036B2, “Organometallic complex, composition and light emitting element including the organometallic complex” (Semiconductor Energy Laboratory Co., Ltd., priority 2007, dated 2015).

Key:
[1] = decomposition temperature by differential thermal balance (TG-DTA); type: physicochemical; settings: temperature increase rate 10° C./min, normal atmospheric pressure
Protocol: The decomposition temperature of the obtained organometallic complex of the present invention, [Ir(tppr)2(dpm)], was measured with a high vacuum differential type differential thermal balance (TG-DTA2410SA, manufactured by Bruker AXS K.K.). The temperature increase rate was 10° C./min, and the temperature was increased under normal atmospheric pressure.

[2] = solubility test in various solvents; type: physicochemical; settings: for solubility in dimethylformamide (DMF) / solubility x, Solvents not having aromatic ring DMF: solvent DMF; for solubility in chloroform / solubility x, Solvents not having aromatic ring chloroform: solvent chloroform; for solubility in dioxane / solubility x, Ethers dioxane: solvent dioxane; for solubility in toluene / solubility x, sovents having aromatic ring toluene: solvent toluene
Protocol: In this Example, the solubility of an organometallic complex including a pyrazine skeleton described in Embodiment Mode 1 was measured. The measurement was performed by examining the solubility in various solvents: 2-ethoxyethanol, isopropanol, and ethanol, which are alcohols; dioxane, which is ether; chloroform and dimethylformamide (DMF), which are an organic solvent not including an aromatic ring; and toluene, which is an aromatic hydrocarbon-based solvent.
Among the complexes disclosed in Embodiment Mode 1, [Ir(tppr)2(dpm)] represented by the structural formula (147), which was synthesized in Example 1, is selected as a measurement object. The solubility was investigated. […]

Substance | decomposition temperature (reduction in weight by 5%) [1] | solubility x, Alcohols 2-ethoxyethanol ([2]; solvent 2-ethoxyethanol) | solubility in dimethylformamide (DMF) [2] | solubility x, Solvents not having aromatic ring DMF [2] | solubility in chloroform [2] | solubility x, Solvents not having aromatic ring chloroform [2] | solubility in dioxane [2] | solubility x, Ethers dioxane [2] | solubility in ethanol ([2]; solvent ethanol) | solubility x, Alcohols ethanol ([2]; solvent ethanol) | solubility in isopropanol ([2]; solvent isopropanol) | solubility x, Alcohols isopropanol ([2]; solvent isopropanol) | solubility in toluene [2] | solubility x, sovents having aromatic ring toluene [2]
bis(2,3,5-triphenylpyrazinato)(dipivaloylmethanato)iridium(III) [Ir(tppr)2(dpm)] | 327 °C | ⊚ (x ≧ 1.2) | ≥ 1200 µg/mL | ⊚ (x ≧ 1.2) | ≥ 1200 µg/mL | ⊚ (x ≧ 1.2) | ≥ 1200 µg/mL | ⊚ (x ≧ 1.2) | ≥ 600 µg/mL | Δ (0.9 > x ≧ 0.6) | ≥ 600 µg/mL | Δ (0.9 > x ≧ 0.6) | ≥ 600 µg/mL | Δ (0.9 > x ≧ 0.6)
bis(2,3,5-triphenylpyrazinato)(pivaloyltrifluoroacetonato)iridium(III) [Ir(tppr)2(pFac)] | – | – | ≥ 1200 µg/mL | ⊚ (x ≧ 1.2) | ≥ 1200 µg/mL | ⊚ (x ≧ 1.2) | ≥ 1200 µg/mL | ⊚ (x ≧ 1.2) | – | – | – | – | ≥ 1200 µg/mL | ⊚ (x ≧ 1.2)
